Results from patent publication US20230265116A1, “DEGRADATION OF (EGFR) BY CONJUGATION OF EGFR INHIBITORS WITH E3 LIGASE LIGAND AND METHODS OF USE” (BEIGENE, LTD., priority 2020, published 2023).

Experiments:
Format in all cases: cell-based
[1] = biological target: T1, EGFR L858R/C797S (BaF3 LC cells) (Homo sapiens, UniProt P00533, C797S/L858R); assay: EGFR degradation HTRF assay, BaF3 LC cells; conditions: BaF3 LC, 16h treatment; for DC50: read-out: BaF3 LC DC50; for Dmax: maximum percentage of degradation, read-out: BaF3 LC Dmax (%)
T1 construct: expressed in transfected cells; host or cells: BaF3

[2] = biological target: T2, EGFR L858R/T790M/C797S (BaF3-LTC cells) (Homo sapiens, UniProt P00533, C797S/L858R/T790M); assay: EGFR degradation HTRF assay, BaF3-LTC cells; conditions: BaF3-LTC cells; for DC50: EGFR degradation, IC50 (DC50) from curve fit, read-out: DC50(nM) BaF3-LTC; for Dmax: read-out: Dmax (%) BaF3-LTC
T2 construct: expressed in transfected cells; host or cells: BaF3
Outline: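 Cells treated 16 h at 37 °C, 5% CO2 in medium with 0.2% DMSO; top final concentration 10 uM, 5-fold dilution, 8 doses. Lysates read by HTRF (665/620 nm); degradation % versus DMSO high control, DC50 from four-parameter fit, Dmax as maximal degradation.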

[3] = tested on: EGFR Del19/T790M/C797S (H1975-clone #28); assay: EGFR degradation HTRF assay, H1975-clone #28 DTC cells; conditions: H1975 # 28 DTC cells; for DC50: EGFR degradation, IC50 (DC50) from curve fit, read-out: DC50(nM) H1975 # 28 DTC; for Dmax (%) H1975 # 28 DTC: maximum percentage of inhibition (degradation)
Outline: (§1)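 H1975 clones stably overexpressing mutant EGFR, with endogenous EGFR knocked out by sgRNA and homozygosity confirmed by sequencing, were treated 16h at 37° C. with compounds in 0.2% DMSO (top final 10 uM, 5-fold, 8 doses). Lysates were read by HTRF (665/620 nm); DC50 and Dmax came from fitting % degradation versus DMSO control.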

[4] = tested on: EGFR Del19/C797S (H1975-clone #23); assay: EGFR degradation HTRF assay, H1975-clone #23 DC cells; conditions: 16h treatment; for H1975 #23 DC Dmax (%): maximum percentage of degradation; for DC50: H1975 #23 DC, read-out: H1975 #23 DC DC50
Outline: as §1

[5] = maximum percentage of inhibition (degradation)

T2 sequence (P00533 25-1210 T790M/C797S/L858R): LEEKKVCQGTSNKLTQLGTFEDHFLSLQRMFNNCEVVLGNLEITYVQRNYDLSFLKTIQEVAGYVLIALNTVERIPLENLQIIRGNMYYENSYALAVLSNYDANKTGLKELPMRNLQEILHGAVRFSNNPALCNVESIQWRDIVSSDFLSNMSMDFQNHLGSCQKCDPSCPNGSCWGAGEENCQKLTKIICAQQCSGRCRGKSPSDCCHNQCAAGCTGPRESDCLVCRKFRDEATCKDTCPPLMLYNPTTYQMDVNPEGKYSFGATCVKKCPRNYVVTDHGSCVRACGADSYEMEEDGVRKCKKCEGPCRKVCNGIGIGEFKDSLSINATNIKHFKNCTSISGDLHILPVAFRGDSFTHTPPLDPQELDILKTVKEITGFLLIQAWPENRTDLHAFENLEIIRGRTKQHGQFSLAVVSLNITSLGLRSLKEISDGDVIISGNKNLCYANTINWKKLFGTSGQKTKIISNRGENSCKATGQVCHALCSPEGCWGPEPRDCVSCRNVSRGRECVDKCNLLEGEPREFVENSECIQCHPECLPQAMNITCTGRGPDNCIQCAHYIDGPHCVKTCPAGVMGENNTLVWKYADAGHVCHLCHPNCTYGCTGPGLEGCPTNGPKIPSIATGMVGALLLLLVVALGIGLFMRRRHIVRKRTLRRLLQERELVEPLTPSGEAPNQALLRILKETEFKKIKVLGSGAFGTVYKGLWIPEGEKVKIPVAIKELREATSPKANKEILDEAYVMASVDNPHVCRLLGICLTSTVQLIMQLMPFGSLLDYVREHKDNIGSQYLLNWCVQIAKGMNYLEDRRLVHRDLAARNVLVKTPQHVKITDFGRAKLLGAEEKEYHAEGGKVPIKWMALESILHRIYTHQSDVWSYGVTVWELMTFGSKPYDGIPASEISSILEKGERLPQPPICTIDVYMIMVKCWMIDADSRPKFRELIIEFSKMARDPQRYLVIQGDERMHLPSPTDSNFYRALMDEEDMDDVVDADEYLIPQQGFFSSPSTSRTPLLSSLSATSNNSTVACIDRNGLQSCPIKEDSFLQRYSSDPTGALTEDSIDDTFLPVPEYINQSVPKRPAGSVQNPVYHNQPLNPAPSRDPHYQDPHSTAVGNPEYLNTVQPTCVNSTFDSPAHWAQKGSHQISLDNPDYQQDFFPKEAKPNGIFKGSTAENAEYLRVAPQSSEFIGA
T1 sequence (P00533 25-1210 C797S/L858R): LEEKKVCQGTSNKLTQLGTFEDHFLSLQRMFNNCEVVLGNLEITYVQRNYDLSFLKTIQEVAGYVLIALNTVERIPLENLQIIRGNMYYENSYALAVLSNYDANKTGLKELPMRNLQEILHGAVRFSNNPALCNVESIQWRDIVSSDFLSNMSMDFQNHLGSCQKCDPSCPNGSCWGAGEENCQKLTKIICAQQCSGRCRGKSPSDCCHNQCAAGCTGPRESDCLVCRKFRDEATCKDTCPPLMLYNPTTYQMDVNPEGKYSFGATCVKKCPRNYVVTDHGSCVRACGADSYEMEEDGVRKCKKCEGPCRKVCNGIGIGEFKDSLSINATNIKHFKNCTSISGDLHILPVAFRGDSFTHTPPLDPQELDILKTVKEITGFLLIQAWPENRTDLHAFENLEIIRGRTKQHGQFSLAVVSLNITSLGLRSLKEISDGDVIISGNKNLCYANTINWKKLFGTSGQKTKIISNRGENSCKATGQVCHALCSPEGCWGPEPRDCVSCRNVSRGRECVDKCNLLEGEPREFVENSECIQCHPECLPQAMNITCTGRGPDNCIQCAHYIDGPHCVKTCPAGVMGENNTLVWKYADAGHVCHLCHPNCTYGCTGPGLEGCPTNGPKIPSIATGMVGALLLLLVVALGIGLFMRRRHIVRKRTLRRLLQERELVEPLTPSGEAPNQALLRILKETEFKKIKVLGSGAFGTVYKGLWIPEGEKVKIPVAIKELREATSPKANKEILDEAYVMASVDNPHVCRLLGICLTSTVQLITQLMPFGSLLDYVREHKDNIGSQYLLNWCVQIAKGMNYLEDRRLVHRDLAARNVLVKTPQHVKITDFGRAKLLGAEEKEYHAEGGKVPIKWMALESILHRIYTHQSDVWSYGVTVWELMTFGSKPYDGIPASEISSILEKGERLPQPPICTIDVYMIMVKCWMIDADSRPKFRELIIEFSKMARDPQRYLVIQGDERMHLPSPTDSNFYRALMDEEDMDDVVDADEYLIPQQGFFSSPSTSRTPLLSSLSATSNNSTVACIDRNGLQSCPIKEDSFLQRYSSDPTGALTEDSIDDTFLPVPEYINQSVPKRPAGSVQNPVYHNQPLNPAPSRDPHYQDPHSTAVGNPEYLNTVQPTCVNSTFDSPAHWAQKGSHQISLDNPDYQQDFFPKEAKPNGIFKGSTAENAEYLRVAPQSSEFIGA

Row | Compound | DC50 [1] | DC50 [2] | DC50 [3] | DC50 [4] | Dmax [1] | Dmax [2, 5] | Dmax (%) BaF3-LTC [2, 5] | Dmax (%) H1975 # 28 DTC [3] | H1975 #23 DC Dmax (%) [4]
1 | CCOc1cc(N2CCC(N3CCN(CCc4cccc5c4oc(=O)n5C4CCC(=O)NC4=O)CC3)CC2)c(CC)cc1Nc1ncc(Br)c(Nc2ccc3nc(CC)ccc3c2P(C)(C)=O)n1 (stereo not shown) [Example 473, 3-(7-(2-(4-(1-(4-((5-bromo-4-((5-(dimethylphosphoryl)-2-ethylquinolin-6-yl)amino)pyrimidin-2-yl)amino)-5-ethoxy-2-ethylphenyl)piperidin-4-yl)piperazin-1-yl)ethyl)-2-oxobenzo[d]oxazol-3(2H)-yl)piperidine-2,6-dione] | 73.4 nM | 9.51 nM | 0.616 nM | 12.8 nM | – | – | – | 83.08% | 82.45%
2 | CCOc1cc(N2CCC(N3CCN(CCc4cc5oc(=O)n(C6CCC(=O)NC6=O)c5cc4C)CC3)CC2)c(CC)cc1Nc1ncc(Br)c(Nc2cc(F)c3nc(CC)ccc3c2P(C)(C)=O)n1 (stereo not shown) [Example 553, 3-(6-(2-(4-(1-(4-((5-bromo-4-((5-(dimethylphosphoryl)-2-ethyl-8-fluoroquinolin-6-yl)amino)pyrimidin-2-yl)amino)-5-ethoxy-2-ethylphenyl)piperidin-4-yl)piperazin-1-yl)ethyl)-5-methyl-2-oxobenzo[d]oxazol-3(2H)-yl)piperidine-2,6-dione] | 1.23 nM | 2.49 nM | 0.712 nM | 0.828 nM | 93.3% | 90.7% | – | 61.54% | 53.56%
3 | CCc1cc(Nc2ncc(Br)c(Nc3ccc4nc(C)ccc4c3P(C)(C)=O)n2)c(OC)cc1N1CCC(N2CCN(C(=O)C3CN(c4cccc5c4C(C)(C)C(=O)N5C4CCC(=O)NC4=O)C3)CC2)CC1 (stereo not shown) [Example 507] | 8.97 nM | 4.3 nM | 0.5 nM | 2.41 nM | 94% | 89.8% | – | 68.8% | 52.12%
4 | CCc1ccc2c(P(C)(C)=O)c(Nc3nc(Nc4cc(CC)c(N5CCC(N6CCN(CCc7ccc8c(oc(=O)n8C8CCC(=O)NC8=O)c7F)CC6)CC5)cc4OC)ncc3Br)ccc2n1 (stereo not shown) [Example 458, 3-(6-(2-(4-(1-(4-((5-bromo-4-((5-(dimethylphosphoryl)-2-ethylquinolin-6-yl)amino)pyrimidin-2-yl)amino)-2-ethyl-5-methoxyphenyl)piperidin-4-yl)piperazin-1-yl)ethyl)-7-fluoro-2-oxobenzo[d]oxazol-3(2H)-yl)piperidine-2,6-dione] | 3.29 nM | 2.09 nM | 0.505 nM | 3.26 nM | 91.5% | 88.3% | – | 83.62% | 59.65%
5 | CCOc1cc(N2CCC(N3CCN(CCc4cccc5c4n(C4CC4)c(=O)n5C4CCC(=O)NC4=O)CC3)CC2)c(CC)cc1Nc1ncc(Br)c(Nc2ccc3nc(CC)ccc3c2P(C)(C)=O)n1 (stereo not shown) [Example 468, 3-(4-(2-(4-(1-(4-((5-bromo-4-((5-(dimethylphosphoryl)-2-ethylquinolin-6-yl)amino)pyrimidin-2-yl)amino)-5-ethoxy-2-ethylphenyl)piperidin-4-yl)piperazin-1-yl)ethyl)-3-cyclopropyl-2-oxo-2,3-dihydro-1H-benzo[d]imidazol-1-yl)piperidine-2,6-dione] | 66.1 nM | 12.2 nM | 0.998 nM | 11.9 nM | 82.8% | 90.2% | – | 74.46% | 79.65%
6 | CCc1ccc2c(P(C)(C)=O)c(Nc3nc(Nc4cc(CC)c(N5CCC(N6CCN(CCc7cccc8c7oc(=O)n8C7CCC(=O)NC7=O)CC6)CC5)cc4OC)ncc3Br)ccc2n1 (stereo not shown) [Example 509, 3-(7-(2-(4-(1-(4-((5-bromo-4-((5-(dimethylphosphoryl)-2-ethylquinolin-6-yl)amino)pyrimidin-2-yl)amino)-2-ethyl-5-methoxyphenyl)piperidin-4-yl)piperazin-1-yl)ethyl)-2-oxobenzo[d]oxazol-3(2H)-yl)piperidine-2,6-dione] | 15.5 nM | 7.93 nM | 0.887 nM | 1.94 nM | 80.4% | 92.5% | – | 79.34% | 77.77%
7 | CCc1cc(Nc2ncc(Br)c(Nc3ccc4nc(C)ccc4c3P(C)(C)=O)n2)c(OC)cc1N1CCC(N2CCN(CCc3ccc4c(c3)oc(=O)n4C3CCC(=O)NC3=O)CC2)CC1 (stereo not shown) [Example 490, 3-(6-(2-(4-(1-(4-((5-bromo-4-((5-(dimethylphosphoryl)-2-methylquinolin-6-yl)amino)pyrimidin-2-yl)amino)-2-ethyl-5-methoxyphenyl)piperidin-4-yl)piperazin-1-yl)ethyl)-2-oxobenzo[d]oxazol-3(2H)-yl)piperidine-2,6-dione] | 2.41 nM | 1.3 nM | 0.2 nM | 0.974 nM | 95.7% | 92.8% | – | 80.5% | 64.67%

Second part, led by results:

Row | DC50 [1] | DC50 [2] | DC50 [3] | DC50 [4] | Dmax [1] | Dmax [2, 5] | Dmax (%) BaF3-LTC [2, 5] | Compound | Dmax (%) H1975 # 28 DTC [3] | H1975 #23 DC Dmax (%) [4]
8 | 3.8 nM | 3.21 nM | 1.81 nM | 4.74 nM | – | – | – | CCOc1cc(N2CCC(N3CCN(CCc4cccc5c4C(C)(C)C(=O)N5C4CCC(=O)NC4=O)CC3)CC2)c(CC)cc1Nc1ncc(Br)c(Nc2ccc3nc(CC)ccc3c2P(C)(C)=O)n1 (stereo not shown) [Example 572, 3-(4-(2-(4-(1-(4-((5-bromo-4-((5-(dimethylphosphoryl)-2-ethylquinolin-6-yl)amino)pyrimidin-2-yl)amino)-5-ethoxy-2-ethylphenyl)piperidin-4-yl)piperazin-1-yl)ethyl)-3,3-dimethyl-2-oxoindolin-1-yl)piperidine-2,6-dione] | 83.86% | 69.16%
9 | 3.84 nM | 2.96 nM | 0.642 nM | 0.591 nM | 88.1% | – | 95.58% | CCOc1cc(N2CCC(N3CCN(CCc4ccc5c(c4)oc(=O)n5C4CCC(=O)NC4=O)CC3)CC2)c(CC)cc1Nc1ncc(Br)c(Nc2ccc3nc(C)ccc3c2P(C)(C)=O)n1 (stereo not shown) [Example 532] | 70.91% | 52.49%
10 | 6.88 nM | 3.34 nM | 0.26 nM | 0.951 nM | 85.5% | 92.6% | – | CCOc1cc(N2CCC(N3CCN(CCc4ccc5c(c4)oc(=O)n5C4CCC(=O)NC4=O)CC3)CC2)c(CC)cc1Nc1ncc(Br)c(Nc2ccc3nc(CC)ccc3c2P(C)(C)=O)n1 (stereo not shown) [Example 463, 3-(6-(2-(4-(1-(4-((5-bromo-4-((5-(dimethylphosphoryl)-2-ethylquinolin-6-yl)amino)pyrimidin-2-yl)amino)-5-ethoxy-2-ethylphenyl)piperidin-4-yl)piperazin-1-yl)ethyl)-2-oxobenzo[d]oxazol-3(2H)-yl)piperidine-2,6-dione] | 82.73% | 56.75%
11 | 69 nM | 26.6 nM | 2.02 nM | 7.19 nM | – | – | – | CCOc1cc(N2CCC(N3CCN(CCc4cc(F)c([C@H]5CCC(=O)NC5=O)c(F)c4)CC3)CC2)c(CC)cc1Nc1ncc(Br)c(Nc2ccc3nc(CC)ccc3c2P(C)(C)=O)n1 [Example 483, (R)-3-(4-(2-(4-(1-(4-((5-bromo-4-((5-(dimethylphosphoryl)-2-ethylquinolin-6-yl)amino)pyrimidin-2-yl)amino)-5-ethoxy-2-ethylphenyl)piperidin-4-yl)piperazin-1-yl)ethyl)-2,6-difluorophenyl)piperidine-2,6-dione] | 81.31% | 70.71%
12 | 53.8 nM | 8.4 nM | 1.08 nM | 7.94 nM | – | – | – | CCOc1cc(N2CCC(N3CCN(C(=O)[C@@H]4CCN(c5cc(F)c([C@H]6CCC(=O)NC6=O)c(F)c5)C4)CC3)CC2)c(CC)cc1Nc1ncc(Br)c(Nc2ccc3nc(C)c(F)cc3c2P(C)(C)=O)n1 [Example 577, (R)-3-(4-((R)-3-(4-(1-(4-((5-bromo-4-((5-(dimethylphosphoryl)-3-fluoro-2-methylquinolin-6-yl)amino)pyrimidin-2-yl)amino)-5-ethoxy-2-ethylphenyl)piperidin-4-yl)piperazine-1-carbonyl)pyrrolidin-1-yl)-2,6-difluorophenyl)piperidine-2,6-dione] | 87.91% | 64.13%
